Columns and labels:
[1] = target: T1, recombinant N-terminal PMS2 (residues 1-365) (Homo sapiens, UniProt P54278); assay: Fluorescence Polarisation Assay for PMS2; type: binding; conditions: fluorescence polarisation probe displacement; 10 nM N-terminal PMS2, 5 nM probe compound; read-out: PMS2 IC50
T1 construct: recombinant N-terminal PMS2 (residues 1-365)
T1 sequence (P54278 1-365): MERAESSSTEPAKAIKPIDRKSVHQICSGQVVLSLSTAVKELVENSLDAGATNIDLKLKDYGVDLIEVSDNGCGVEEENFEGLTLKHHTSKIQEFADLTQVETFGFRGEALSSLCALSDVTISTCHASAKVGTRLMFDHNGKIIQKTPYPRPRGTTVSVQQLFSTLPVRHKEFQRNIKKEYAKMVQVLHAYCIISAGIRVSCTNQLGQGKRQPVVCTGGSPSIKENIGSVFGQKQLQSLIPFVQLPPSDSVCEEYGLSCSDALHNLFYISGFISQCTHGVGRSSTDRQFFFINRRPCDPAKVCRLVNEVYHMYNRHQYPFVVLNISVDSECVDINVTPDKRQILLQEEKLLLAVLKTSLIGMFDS
Protocol: Fluorescence Polarisation Assay for PMS2
For single point screening, test compounds were added to wells in columns 1-22 whilst DMSO was added to wells in columns 23 and 24 in order to normalise the plate. For potency determination, serial dilutions of test compounds were added to wells in columns 3-22 and DMSO volume was normalised across the plate.
20 μL assay buffer was added to all wells in columns 1 and 24 (column 24 only for single point screening) using a MultiDrop Combi (ThermoFisher). Plates were centrifuged for 1 minute at 250×g and were incubated at room temperature for 30 minutes prior to the addition of 20 μL of 2× (20 nM) of 5-((5-(4-((2-(2,4-dihydroxy-5-isopropylbenzoyl)isoindolin-5-yl)methyl)piperazin-1-yl)pentyl)carbamoyl)-2-(6-(dimethylamino)-3-(dimethyliminio)-3H-xanthen-9-yl)benzoate (referred to hereinafter as “probe compound”) in assay buffer (prepared from a 100 μM DMSO stock) with a MultiDrop Combi (ThermoFisher). The final concentration of N-terminal PMS2 was 10 nM and the final concentration of probe compound was 5 nM.
Compound plates were centrifuged for 1 minute at 250×g for 1 minute and were incubated at room temperature for 1 hour before being read on a PheraStar FSX (fitted with 384-well aperture spoon and 540 590 590 FP optic module). The gain and focus were adjusted before each plate was read so that the polarisation of a no enzyme control (column 24) was equal to 35 mP. Data were normalised against the no inhibitor controls (column 23) and no enzyme controls (column 24).

[2] = target: T2, recombinant N-terminal MLH1 (residues 15-340) (Homo sapiens, UniProt P40692); assay: Fluorescence Polarisation Assay for MLH1; type: binding; conditions: fluorescence polarisation probe displacement; 100 nM N-terminal MLH1, 5 nM probe compound
T2 construct: recombinant N-terminal MLH1 (residues 15-340)
T2 sequence (P40692 15-340): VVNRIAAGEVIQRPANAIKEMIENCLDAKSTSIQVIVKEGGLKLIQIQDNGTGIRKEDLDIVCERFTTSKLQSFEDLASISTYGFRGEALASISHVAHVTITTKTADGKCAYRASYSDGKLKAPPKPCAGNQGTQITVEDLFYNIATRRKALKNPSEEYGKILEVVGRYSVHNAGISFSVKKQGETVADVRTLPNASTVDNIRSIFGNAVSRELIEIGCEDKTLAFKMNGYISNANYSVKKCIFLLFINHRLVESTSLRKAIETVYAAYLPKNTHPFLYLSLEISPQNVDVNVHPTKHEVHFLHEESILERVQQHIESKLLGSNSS
Protocol: Fluorescence Polarisation Assay for MLH1
Test compounds, as 10 mM DMSO stocks, were dispensed into a 384-well Low Flange Black Flat Bottom Polystyrene Non-binding Surface plate (Corning®, item number 3575) using a Labcyte Echo acoustic liquid handler. Test compounds were added to wells in columns 1-22 whilst DMSO was added to wells in columns 23 and 24 in order to normalise the plate. 20 μL of a 2× solution (200 nM) of recombinant N-terminal MLH1 (residues 15-340) in assay buffer (25 mM HEPES, pH 7.5, 250 mM NaCl, 10 mM MgCl2, 0.01% Triton X-100, 5 mM dithiothreitol) was added to all wells in columns 1-23 and 20 μL assay buffer was added to all wells in column 24 using an E1-ClipTip pipette (ThermoFisher). Plates were centrifuged for 1 minute at 250×g and were incubated at room temperature for 30 minutes prior to the addition of 20 μL of 2× (10 nM) 5-((5-(4-((2-(2,4-dihydroxy-5-isopropylbenzoyl)isoindolin-5-yl)methyl)piperazin-1-yl)pentyl)carbamoyl)-2-(6-(dimethylamino)-3-(dimethyliminio)-3H-xanthen-9-yl)benzoate in assay buffer (prepared from a 1 mM DMSO stock) with an E1-ClipTip pipette (ThermoFisher). The final concentration of N-terminal MLH1 was 100 nM and the final concentration of the probe compound was 5 nM. Compound plates were centrifuged for 1 minute at 250×g for 1 minute and immediately read on a PheraStar FSX (fitted with 384-well aperture spoon and 590 675 675 FP optic module). The gain and focus were adjusted before each plate was read so that the polarisation of a no enzyme control (column 24) was equal to 35 mP. Data were normalised against the no inhibitor controls (column 23) and no enzyme controls (column 24).

Compound | IC50 [1] [µM] | IC50 [2] [µM]
O=C(c1c(O)cc(O)cc1OCc1ccccc1)N1Cc2ccccc2C(O)C1 (single isomer, unassigned) [Example 50, (2-Benzyloxy-4,6-dihydroxy-phenyl)-(4-hydroxy-3,4-dihydro-1H-isoquinolin-2-yl)methanone] | > 10 | 1 to 10
O=C(c1c(O)cc(O)cc1OCc1ccccc1)N1Cc2ccccc2C(O)C1 (single isomer, unassigned) [Example 51, (2-Benzyloxy-4,6-dihydroxy-phenyl)-(4-hydroxy-3,4-dihydro-1H-isoquinolin-2-yl)methanone] | > 10 | 1 to 10
CN1CC(Nc2cccc3c2CN(C(=O)c2c(O)cc(O)cc2OCc2ccccc2)CC3)CC1=O (single isomer, unassigned) [Example 61, 4-((2-(2-(Benzyloxy)-4,6-dihydroxybenzoyl)-1,2,3,4-tetrahydroisoquinolin-8-yl)amino)-1-methylpyrrolidin-2-one] | > 10 | < 1
O=C(c1c(O)cc(O)cc1OCc1ccccc1)N1Cc2ccc(CN3CCNCC3)cc2C1 [Example 3, (2-(Benzyloxy)-4,6-dihydroxyphenyl)(5-(piperazin-1-ylmethyl)isoindolin-2-yl)methanone] | 1 to 10 | < 1
CNCc1ccc2c(c1)CN(C(=O)c1c(O)cc(O)cc1OCc1ccccc1)C2 [Example 4, (2-(Benzyloxy)-4,6-dihydroxyphenyl)(5-((methylamino)methyl)isoindolin-2-yl)methanone] | < 1 | < 1
N#CC1CC(Oc2cccc3c2CN(C(=O)c2c(O)cc(O)cc2OCc2ccccc2)C3)C1 (stereo not shown) [Example 5, 3-((2-(2-(Benzyloxy)-4,6-dihydroxybenzoyl)isoindolin-4-yl)oxy)cyclobutane-1-carbonitrile] | 1 to 10 | 1 to 10
O=C(c1c(O)cc(O)cc1OCc1ccccc1)N1Cc2cccc(N3CCCC(O)C3)c2C1 (stereo not shown) [Example 8, (2-(Benzyloxy)-4,6-dihydroxyphenyl)(4-(3-hydroxypiperidin-1-yl)isoindolin-2-yl)methanone] | 1 to 10 | 1 to 10
CN1CCN(Cc2cccc3c2CN(C(=O)c2c(O)cc(O)cc2OCc2ccccc2)C3)CC1 [Example 9, (2-(Benzyloxy)-4,6-dihydroxyphenyl)(4-((4-methylpiperazin-1-yl)methyl)isoindolin-2-yl)methanone] | 1 to 10 | 1 to 10
O=C(c1c(O)cc(O)cc1OCc1ccccc1)N1Cc2cccc(CN3CCOCC3)c2C1 [Example 10, (2-(Benzyloxy)-4,6-dihydroxyphenyl)(4-(morpholinomethyl)isoindolin-2-yl)methanone] | 1 to 10 | 1 to 10

Other lines, results leading:

IC50 [1] [µM] | IC50 [2] [µM] | Compound
1 to 10 | < 1 | O=C(c1c(O)cc(O)cc1OCc1ccccc1)N1Cc2cccc(NC3CCCOC3)c2C1 (single isomer, unassigned) [Example 30, (2-(Benzyloxy)-4,6-dihydroxyphenyl)(4-((tetrahydro-2H-pyran-3-yl)amino)isoindolin-2-yl)methanone]
> 10 | 1 to 10 | O=C(c1c(O)cc(O)cc1OCc1ccccc1)N1Cc2cccc(NC3CCCOC3)c2C1 (single isomer, unassigned) [Example 31, (2-(Benzyloxy)-4,6-dihydroxyphenyl)(4-((tetrahydro-2H-pyran-3-yl)amino)isoindolin-2-yl)methanone]
< 1 | < 1 | CN1CC(Nc2cccc3c2CN(C(=O)c2c(O)cc(O)cc2OCc2ccccc2)CC3)CC1=O (single isomer, unassigned) [Example 62, 4-((2-(2-(Benzyloxy)-4,6-dihydroxybenzoyl)-1,2,3,4-tetrahydroisoquinolin-8-yl)amino)-1-methylpyrrolidin-2-one]
1 to 10 | < 1 | COc1cc2c(c(NC3CCOC3)c1)CN(C(=O)c1c(O)cc(O)cc1OCc1ccccc1)CC2 (single isomer, unassigned) [Example 72, (2-(Benzyloxy)-4,6-dihydroxyphenyl)(6-methoxy-8-((tetrahydrofuran-3-yl)amino)-3,4-dihydroisoquinolin-2(1H)-yl)methanone]
> 10 | 1 to 10 | COc1cc2c(c(NC3CCOC3)c1)CN(C(=O)c1c(O)cc(O)cc1OCc1ccccc1)CC2 (single isomer, unassigned) [Example 73, (2-(Benzyloxy)-4,6-dihydroxyphenyl)(6-methoxy-8-((tetrahydrofuran-3-yl)amino)-3,4-dihydroisoquinolin-2(1H)-yl)methanone]
> 10 | < 1 | O=C(c1c(O)cc(O)cc1OCc1ccccc1)N1CCc2cccc(NC3CCS(=O)(=O)C3)c2C1 (single isomer, unassigned) [Example 147a, (2-(Benzyloxy)-4,6-dihydroxyphenyl)(8-((1,1-dioxidotetrahydrothiophen-3-yl)amino)-3,4-dihydroisoquinolin-2(1H)-yl)methanone]
1 to 10 | < 1 | O=C(c1c(O)cc(O)cc1OCc1ccccc1)N1CCc2cccc(NC3CCS(=O)(=O)C3)c2C1 (single isomer, unassigned) [Example 147b, (2-(Benzyloxy)-4,6-dihydroxyphenyl)(8-((1,1-dioxidotetrahydrothiophen-3-yl)amino)-3,4-dihydroisoquinolin-2(1H)-yl)methanone]
> 10 | < 1 | O=C(c1c(O)cc(O)cc1OCc1ccccc1)N1CCc2cccc(N[C@@H]3CCOC3)c2C1 [Example 1, (R)-(2-(Benzyloxy)-4,6-dihydroxyphenyl)(8-((tetrahydrofuran-3-yl)amino)-3,4-dihydro-isoquinolin-2(1H)-yl)methanone]
1 to 10 | < 1 | O=C(c1c(O)cc(O)cc1OCc1ccccc1)N1CCc2cccc(N[C@H]3CCOC3)c2C1 [Example 2, (S)-(2-(Benzyloxy)-4,6-dihydroxyphenyl)(8-((tetrahydrofuran-3-yl)amino)-3,4-dihydro-isoquinolin-2(1H)-yl)methanone]
1 to 10 | < 1 | O=C(c1c(O)cc(O)cc1OCc1ccccc1)N1Cc2cccc(NC3CCOC3)c2C1 (stereo not shown) [Example 6, (2-(Benzyloxy)-4,6-dihydroxyphenyl)(4-((tetrahydrofuran-3-yl)amino)isoindolin-2-yl)methanone]
1 to 10 | < 1 | O=C(c1c(O)cc(O)cc1OCc1ccccc1)N1Cc2cccc(NC3COC3)c2C1 [Example 7, (2-(Benzyloxy)-4,6-dihydroxyphenyl)(4-(oxetan-3-ylamino)isoindolin-2-yl)methanone]
